Results as given in patent US20030129629A1, “Methods and compositions for the identification, assessment, prevention, and therapy of human cancers” (Millennium Pharmaceuticals, Inc., priority 2000, published 2003).
Where two headings read alike, the source gives them in different places.

Assays:
[1] = test system: 60 cancer cell lines (NCI 60 cancer cell line series); test: NCI-DTP in vitro cancer screen, sulforhodamine B (SRB) growth inhibition, 48 hour exposure; type: cell-based, human
In short: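 Potency is given as mean −log{GI50} from dose–response curves, manually binned into Low, Medium or High sensitivity. Sixty NCI-DTP tumour lines were treated 48 h with a duplicate, five-dose, ten-fold dilution series, and growth read by SRB staining of cell mass.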

[2] = test system: 60 cancer cell lines (NCI 60 cancer cell line series); conditions: cited from earlier work

COc1cc([C@@H]2c3cc4c(cc3[C@@H](O[C@@H]3O[C@@H]5CO[C@@H](c6cccs6)O[C@H]5[C@H](O)[C@H]3O)[C@H]3COC(=O)[C@H]23)OCO4)cc(OC)c1O [Teniposide]
classification of cell line as Low(1), Medium(2), High(3) sensitivity to compound ([1]; Breast BT-549 CL5013): 2
classification of cell line as Low(1), Medium(2), High(3) sensitivity to compound ([1]; Breast HS-578T CL5006): 2
classification of cell line as Low(1), Medium(2), High(3) sensitivity to compound ([1]; Breast MCF7(I) CL5001): 3
classification of cell line as Low(1), Medium(2), High(3) sensitivity to compound ([1]; Breast MCF7/ADRr CL5002): 1
classification of cell line as Low(1), Medium(2), High(3) sensitivity to compound ([1]; Breast MDA-MB-231 CL5005): 2
classification of cell line as Low(1), Medium(2), High(3) sensitivity to compound ([1]; Breast MDA-MB-435 CL5011): 2
classification of cell line as Low(1), Medium(2), High(3) sensitivity to compound ([1]; Breast MDA-N CL5012): 2
classification of cell line as Low(1), Medium(2), High(3) sensitivity to compound ([1]; Breast T-47D CL5014): 2
classification of cell line as Low(1), Medium(2), High(3) sensitivity to compound ([1]; CNS SF-268 CL12014): 2
classification of cell line as Low(1), Medium(2), High(3) sensitivity to compound ([1]; CNS SF-295 CL12015): 2
classification of cell line as Low(1), Medium(2), High(3) sensitivity to compound ([1]; CNS SF-539 CL12016): 2
classification of cell line as Low(1), Medium(2), High(3) sensitivity to compound ([1]; CNS SNB-19 CL12002): 2
classification of cell line as Low(1), Medium(2), High(3) sensitivity to compound ([1]; CNS SNB-75(I) CL12005): 2
classification of cell line as Low(1), Medium(2), High(3) sensitivity to compound ([1]; CNS U251(I) CL12009): 2
classification of cell line as Low(1), Medium(2), High(3) sensitivity to compound ([1]; Colon COLO-250 CL4010): 2
classification of cell line as Low(1), Medium(2), High(3) sensitivity to compound ([1]; Colon HCC-2998 CL4002): 2
classification of cell line as Low(1), Medium(2), High(3) sensitivity to compound ([1]; Colon HCT-15 CL4015): 2
classification of cell line as Low(1), Medium(2), High(3) sensitivity to compound ([1]; Colon HCT-116 CL4003): 2
classification of cell line as Low(1), Medium(2), High(3) sensitivity to compound ([1]; Colon HT29(I) CL4001): 2
classification of cell line as Low(1), Medium(2), High(3) sensitivity to compound ([1]; Colon KM12 CL4017): 2
classification of cell line as Low(1), Medium(2), High(3) sensitivity to compound ([1]; Colon SW-620 CL4009): 2
classification of cell line as Low(1), Medium(2), High(3) sensitivity to compound ([1]; Leukemia CCRF-CEM(I) CL7003): 3
classification of cell line as Low(1), Medium(2), High(3) sensitivity to compound ([1]; Leukemia HL-60(I) CL7008): 3
classification of cell line as Low(1), Medium(2), High(3) sensitivity to compound ([1]; Leukemia K562(I) CL7005): 2
classification of cell line as Low(1), Medium(2), High(3) sensitivity to compound ([1]; Leukemia MOLT-4 CL7006): 3
classification of cell line as Low(1), Medium(2), High(3) sensitivity to compound ([1]; Leukemia RPMI-8226(I) CL7010): 2
classification of cell line as Low(1), Medium(2), High(3) sensitivity to compound ([1]; Leukemia SR CL7019): 3
classification of cell line as Low(1), Medium(2), High(3) sensitivity to compound ([1]; Melanoma LOX IMVI CL10001): 2
classification of cell line as Low(1), Medium(2), High(3) sensitivity to compound ([1]; Melanoma M14 CL10014): 2
classification of cell line as Low(1), Medium(2), High(3) sensitivity to compound ([1]; Melanoma MALME-3M CL10002): 2
classification of cell line as Low(1), Medium(2), High(3) sensitivity to compound ([1]; Melanoma SK-MEL-2 CL10005): 2
classification of cell line as Low(1), Medium(2), High(3) sensitivity to compound ([1]; Melanoma SK-MEL-28 CL10008): 2
sensitivity classification Low(1)/Medium(2)/High(3) ([1]; NSCLC NCI-H23(I) CL1001): 2
sensitivity classification Low(1)/Medium(2)/High(3) ([1]; NSCLC NCI-H332M CL1017): 1
sensitivity classification Low(1)/Medium(2)/High(3) ([1]; NSCLC NCI-H460 CL1021): 3
sensitivity classification Low(1)/Medium(2)/High(3) ([1]; NSCLC NCI-H522 CL1003): 2
sensitivity classification Low(1)/Medium(2)/High(3) ([1]; Ovarian IGROV1 CL6010): 2
sensitivity classification Low(1)/Medium(2)/High(3) ([1]; Ovarian OVCAR-3 CL6001): 2
sensitivity classification Low(1)/Medium(2)/High(3) ([1]; Ovarian OVCAR-4 CL6002): 1
sensitivity classification Low(1)/Medium(2)/High(3) ([1]; Ovarian OVCAR-5 CL6003): 2
sensitivity classification Low(1)/Medium(2)/High(3) ([1]; Ovarian OVCAR-8 CL6005): 2
sensitivity classification Low(1)/Medium(2)/High(3) ([1]; Ovarian SK-OV-3 CL6011): 2
sensitivity classification Low(1)/Medium(2)/High(3) ([1]; Prostate DU-145 CL11003): 2
sensitivity classification Low(1)/Medium(2)/High(3) ([1]; Prostate PC-3(I) CL11001): 2
sensitivity classification Low(1)/Medium(2)/High(3) ([1]; Renal 786-0 CL9018): 2
sensitivity classification Low(1)/Medium(2)/High(3) ([1]; Renal A498 CL9013): 2
sensitivity classification Low(1)/Medium(2)/High(3) ([1]; Renal ACHN CL9023): 2
sensitivity classification Low(1)/Medium(2)/High(3) ([1]; Renal CAKI-1 CL9015): 3
sensitivity classification Low(1)/Medium(2)/High(3) ([1]; Renal RXF-393 CL9016): 2
sensitivity classification Low(1)/Medium(2)/High(3) ([1]; Renal SN12C CL9008): 2
sensitivity classification Low(1)/Medium(2)/High(3) ([1]; Renal TK10 CL9024): 2
sensitivity classification Low(1)/Medium(2)/High(3) ([1]; Renal UO-31 CL9004): 1
−Log (GI50) ([2]; Melanoma SK-MEL-2 CL10005): 6.0
−Log (GI50) ([2]; Melanoma SK-MEL-28 CL10008): 5.8
−Log (GI50) ([2]; NSCLC NCI-H226 CL1013): 6.5

CN(Cc1cnc2nc(N)nc(N)c2n1)c1ccc(C(=O)N[C@@H](CCC(=O)O)C(=O)O)cc1 [Methotrexate]
classification of cell line as Low(1), Medium(2), High(3) sensitivity to compound ([1]; Breast BT-549 CL5013): 1
classification of cell line as Low(1), Medium(2), High(3) sensitivity to compound ([1]; Breast HS-578T CL5006): 1
classification of cell line as Low(1), Medium(2), High(3) sensitivity to compound ([1]; Breast MDA-MB-231 CL5005): 1
classification of cell line as Low(1), Medium(2), High(3) sensitivity to compound ([1]; Breast T-47D CL5014): 1
classification of cell line as Low(1), Medium(2), High(3) sensitivity to compound ([1]; CNS SF-268 CL12014): 2
classification of cell line as Low(1), Medium(2), High(3) sensitivity to compound ([1]; CNS SF-295 CL12015): 3
classification of cell line as Low(1), Medium(2), High(3) sensitivity to compound ([1]; CNS SF-539 CL12016): 3
classification of cell line as Low(1), Medium(2), High(3) sensitivity to compound ([1]; CNS U251(I) CL12009): 2
classification of cell line as Low(1), Medium(2), High(3) sensitivity to compound ([1]; Colon COLO-250 CL4010): 2
classification of cell line as Low(1), Medium(2), High(3) sensitivity to compound ([1]; Colon HCC-2998 CL4002): 2
classification of cell line as Low(1), Medium(2), High(3) sensitivity to compound ([1]; Colon HCT-15 CL4015): 3
classification of cell line as Low(1), Medium(2), High(3) sensitivity to compound ([1]; Colon HCT-116 CL4003): 3
classification of cell line as Low(1), Medium(2), High(3) sensitivity to compound ([1]; Colon KM12 CL4017): 2
classification of cell line as Low(1), Medium(2), High(3) sensitivity to compound ([1]; Leukemia HL-60(I) CL7008): 2
classification of cell line as Low(1), Medium(2), High(3) sensitivity to compound ([1]; Leukemia K562(I) CL7005): 3
classification of cell line as Low(1), Medium(2), High(3) sensitivity to compound ([1]; Leukemia RPMI-8226(I) CL7010): 2
classification of cell line as Low(1), Medium(2), High(3) sensitivity to compound ([1]; Leukemia SR CL7019): 3
classification of cell line as Low(1), Medium(2), High(3) sensitivity to compound ([1]; Melanoma LOX IMVI CL10001): 3
classification of cell line as Low(1), Medium(2), High(3) sensitivity to compound ([1]; Melanoma SK-MEL-2 CL10005): 1
classification of cell line as Low(1), Medium(2), High(3) sensitivity to compound ([1]; Melanoma SK-MEL-5 CL10007): 2
classification of cell line as Low(1), Medium(2), High(3) sensitivity to compound ([1]; Melanoma SK-MEL-28 CL10008): 1
classification of cell line as Low(1), Medium(2), High(3) sensitivity to compound ([1]; Melanoma UACC-62 CL10020): 3
classification of cell line as Low(1), Medium(2), High(3) sensitivity to compound ([1]; NSCLC A549/ATCC CL1004): 3
classification of cell line as Low(1), Medium(2), High(3) sensitivity to compound ([1]; NSCLC EKVX CL1008): 1
classification of cell line as Low(1), Medium(2), High(3) sensitivity to compound ([1]; NSCLC HOP-62 CL1026): 2
classification of cell line as Low(1), Medium(2), High(3) sensitivity to compound ([1]; NSCLC HOP-92 CL1029): 1
sensitivity classification Low(1)/Medium(2)/High(3) ([1]; NSCLC NCI-H23(I) CL1001): 2
classification of cell line as Low(1), Medium(2), High(3) sensitivity to compound ([1]; NSCLC NCI-H226 CL1013): 1
sensitivity classification Low(1)/Medium(2)/High(3) ([1]; NSCLC NCI-H332M CL1017): 2
sensitivity classification Low(1)/Medium(2)/High(3) ([1]; NSCLC NCI-H460 CL1021): 3
sensitivity classification Low(1)/Medium(2)/High(3) ([1]; Ovarian IGROV1 CL6010): 2
sensitivity classification Low(1)/Medium(2)/High(3) ([1]; Ovarian OVCAR-3 CL6001): 2
sensitivity classification Low(1)/Medium(2)/High(3) ([1]; Ovarian OVCAR-4 CL6002): 1
sensitivity classification Low(1)/Medium(2)/High(3) ([1]; Ovarian OVCAR-5 CL6003): 2
sensitivity classification Low(1)/Medium(2)/High(3) ([1]; Prostate DU-145 CL11003): 2
sensitivity classification Low(1)/Medium(2)/High(3) ([1]; Renal A498 CL9013): 1
sensitivity classification Low(1)/Medium(2)/High(3) ([1]; Renal ACHN CL9023): 2
sensitivity classification Low(1)/Medium(2)/High(3) ([1]; Renal RXF-393 CL9016): 1
sensitivity classification Low(1)/Medium(2)/High(3) ([1]; Renal SN12C CL9008): 3
sensitivity classification Low(1)/Medium(2)/High(3) ([1]; Renal TK10 CL9024): 1
sensitivity classification Low(1)/Medium(2)/High(3) ([1]; Renal UO-31 CL9004): 2
−Log (GI50) ([2]; Leukemia HL-60(I) CL7008): 7.4
−Log (GI50) ([2]; Melanoma M14 CL10014): 7.5
−Log (GI50) ([2]; NSCLC EKVX CL1008): 5.0
−Log (GI50) ([2]; NSCLC HOP-92 CL1029): 5.1
−Log (GI50) ([2]; Renal 786-0 CL9018): 7.5
